Measurements: patent US12077503B2, “Substituted cyclic amides and their use as herbicides” (FMC CORPORATION, priority 2015, dated 2024)

What was measured:
Format in all cases: in vivo
[1] = test system: barnyardgrass (Echinochloa crus-galli); test: Test G Pre-Emergence Protocol; conditions: Echinochloa crus-galli, pre-emergence, 312 h, evaluated after 13 days
Method in brief: (§1)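 Herbicidal effect was rated 13 days post-application on a scale where 100 equals total damage. Spraying took place the day after sowing, using 15.625, 62.5 or 250 g/ha of compound in a 50:50 acetone/water solution with 0.5% Tween 20.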

[2] = test system: giant foxtail (Setaria faberi); test: Test G Pre-Emergence Protocol; conditions: Setaria faberi, pre-emergence, 312 h, evaluated after 13 days
Method in brief: as §1

[3] = test system: ivy-leaved morning glory (Ipomoea hederacea); test: Test G Pre-Emergence Protocol; conditions: Ipomoea, pre-emergence, 312 h, evaluated after 13 days
Method in brief: as §1

[4] = test system: corn (Zea mays); test: Test G Pre-Emergence Protocol; conditions: Zea mays, pre-emergence, 312 h, evaluated after 13 days
Method in brief: as §1

[5] = test system: velvetleaf (Abutilon theophrasti); test: Test G Pre-Emergence Protocol; conditions: Abutilon theophrasti, pre-emergence, 312 h, evaluated after 13 days
Method in brief: as §1

[6] = test system: redroot pigweed (Amaranthus retroflexus); test: Test G Pre-Emergence Protocol; conditions: Amaranthus retroflexus, pre-emergence, 312 h, evaluated after 13 days
Method in brief: as §1

[7] = test system: barnyardgrass (Echinochloa crus-galli); test: Test G Post-Emergence Protocol; conditions: Echinochloa crus-galli, post-emergence, 312 h
Method in brief: (§2)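 A glasshouse post-emergence test: 8-day-old plants sprayed at 15.625, 62.5 or 250 g/ha, then grown at 24/16 °C day/night with 14 h light and 65% humidity. Damage rated 13 days later, 0–100.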

[8] = test system: giant foxtail (Setaria faberi); test: Test G Post-Emergence Protocol; conditions: Setaria faberi, post-emergence, 312 h
Method in brief: as §2

[9] = test system: ivy-leaved morning glory (Ipomoea hederacea); test: Test G Post-Emergence Protocol; conditions: Ipomoea, post-emergence, 312 h
Method in brief: as §2

[10] = test system: corn (Zea mays); test: Test G Post-Emergence Protocol; conditions: Zea mays, post-emergence, 312 h
Method in brief: as §2

[11] = test system: velvetleaf (Abutilon theophrasti); test: Test G Post-Emergence Protocol; conditions: Abutilon theophrasti, post-emergence, 312 h
Method in brief: as §2

[12] = test system: redroot pigweed (Amaranthus retroflexus); test: Test G Post-Emergence Protocol; conditions: Amaranthus retroflexus, post-emergence, 312 h
Method in brief: as §2

COc1c(Cl)ccc([C@H]2CN(C)C(=O)[C@@H]2C(=O)Nc2cccc(F)n2)c1F (racemic) [Compound 1477]
pest or weed control at 15.625 g/ha ([1]; 15.625 g ai/ha, read-out: Barnyard grass damage rating (100=total damage to plant; 0=no damage to plant)): 50% | pest or weed control at 62.5 g/ha ([1]; 62.5 g ai/ha, 100=total damage to plant, 0=no damage to plant, read-out: plant damage rating, Barnyardgrass): 60% | pest or weed control at 250 g/ha ([1]; 250 g ai/ha, read-out: Barnyardgrass damage rating (100=total damage to plant; 0=no damage to plant)): 80% | pest or weed control at 15.625 g/ha ([2]; 15.625 g ai/ha, read-out: Foxtail, Giant damage rating (100=total damage to plant; 0=no damage to plant)): 60% | pest or weed control at 62.5 g/ha ([2]; 62.5 g ai/ha, 100=total damage to plant, 0=no damage to plant, read-out: plant damage rating, Foxtail, Giant): 80% | pest or weed control at 250 g/ha ([2]; 250 g ai/ha, read-out: Foxtail, Giant damage rating (100=total damage to plant; 0=no damage to plant)): 90% | pest or weed control at 15.625 g/ha ([3]; 15.625 g ai/ha, read-out: Morning-glory, Ivy-leaved damage rating (100=total damage to plant; 0=no damage to plant)): 0% | pest or weed control at 62.5 g/ha ([3]; 62.5 g ai/ha, 100=total damage to plant, 0=no damage to plant, read-out: plant damage rating, Morningglory, Ivy-leaved): 0% | pest or weed control at 250 g/ha ([3]; 250 g ai/ha, read-out: Morningglory, Ivy-leaved damage rating (100=total damage to plant; 0=no damage to plant)): 0% | plant injury at 15.625 g/ha ([4]; 15.625 g ai/ha, read-out: Corn damage rating (100=total damage to plant; 0=no damage to plant)): 20% | plant injury at 62.5 g/ha ([4]; 62.5 g ai/ha, 100=total damage to plant, 0=no damage to plant, read-out: plant damage rating, Corn): 40% | plant injury at 250 g/ha ([4]; 250 g ai/ha, read-out: Corn damage rating (100=total damage to plant; 0=no damage to plant)): 50% | pest or weed control at 15.625 g/ha ([5]; 15.625 g ai/ha, read-out: Velvetleaf damage rating (100=total damage to plant; 0=no damage to plant)): 0% | pest or weed control at 62.5 g/ha ([5]; 62.5 g ai/ha, 100=total damage to plant, 0=no damage to plant, read-out: plant damage rating, Velvetleaf): 0% | pest or weed control at 250 g/ha ([5]; 250 g ai/ha, read-out: Velvetleaf damage rating (100=total damage to plant; 0=no damage to plant)): 0% | pest or weed control at 15.625 g/ha ([6]; 15.625 g ai/ha, read-out: Pigweed, Redroot damage rating (100=total damage to plant; 0=no damage to plant)): 0% | pest or weed control at 62.5 g/ha ([6]; 62.5 g ai/ha, 100=total damage to plant, 0=no damage to plant, read-out: plant damage rating, Pigweed, Redroot): 0% | pest or weed control at 250 g/ha ([6]; 250 g ai/ha, read-out: Pigweed, Redroot damage rating (100=total damage to plant; 0=no damage to plant)): 0% | pest or weed control at 15.625 g/ha ([7]; 15.625 g ai/ha, evaluated after 13 days (100=total damage to plant; 0=no damage to plant), read-out: Barnyardgrass damage rating): 50% | pest or weed control at 62.5 g/ha ([7]; 62.5 g ai/ha, evaluated after 13 days, read-out: Barnyardgrass damage rating (100=total damage to plant; 0=no damage to plant)): 60% | pest or weed control at 250 g/ha ([7]; 250 g ai/ha, evaluated after 13 days, read-out: damage to plant, Barnyardgrass (100=total damage to plant; 0=no damage to plant)): 60% | pest or weed control at 15.625 g/ha ([8]; 15.625 g ai/ha, evaluated after 13 days (100=total damage to plant; 0=no damage to plant), read-out: Foxtail, Giant damage rating): 50% | pest or weed control at 62.5 g/ha ([8]; 62.5 g ai/ha, evaluated after 13 days, read-out: Foxtail, Giant damage rating (100=total damage to plant; 0=no damage to plant)): 60% | pest or weed control at 250 g/ha ([8]; 250 g ai/ha, evaluated after 13 days, read-out: damage to plant, Foxtail, Giant (100=total damage to plant; 0=no damage to plant)): 70% | pest or weed control at 15.625 g/ha ([9]; 15.625 g ai/ha, evaluated after 13 days (100=total damage to plant; 0=no damage to plant), read-out: Morningglory, Ivy-leaved damage rating): 0% | pest or weed control at 62.5 g/ha ([9]; 62.5 g ai/ha, evaluated after 13 days, read-out: Morningglory, Ivy-leaved damage rating (100=total damage to plant; 0=no damage to plant)): 0% | pest or weed control at 250 g/ha ([9]; 250 g ai/ha, evaluated after 13 days, read-out: damage to plant, Morningglory, Ivy-leaved (100=total damage to plant; 0=no damage to plant)): 0% | plant injury at 15.625 g/ha ([10]; 15.625 g ai/ha, evaluated after 13 days (100=total damage to plant; 0=no damage to plant), read-out: Corn damage rating): 30% | plant injury at 62.5 g/ha ([10]; 62.5 g ai/ha, evaluated after 13 days, read-out: Corn damage rating (100=total damage to plant; 0=no damage to plant)): 60% | plant injury at 250 g/ha ([10]; 250 g ai/ha, evaluated after 13 days, read-out: damage to plant, Corn (100=total damage to plant; 0=no damage to plant)): 50% | pest or weed control at 15.625 g/ha ([11]; 15.625 g ai/ha, evaluated after 13 days (100=total damage to plant; 0=no damage to plant), read-out: Velvetleaf damage rating): 0% | pest or weed control at 62.5 g/ha ([11]; 62.5 g ai/ha, evaluated after 13 days, read-out: Velvetleaf damage rating (100=total damage to plant; 0=no damage to plant)): 20% | pest or weed control at 250 g/ha ([11]; 250 g ai/ha, evaluated after 13 days, read-out: damage to plant, Velvetleaf (100=total damage to plant; 0=no damage to plant)): 20% | pest or weed control at 15.625 g/ha ([12]; 15.625 g ai/ha, evaluated after 13 days (100=total damage to plant; 0=no damage to plant), read-out: Pigweed, Redroot damage rating): 0% | pest or weed control at 62.5 g/ha ([12]; 62.5 g ai/ha, evaluated after 13 days, read-out: Pigweed, Redroot damage rating (100=total damage to plant; 0=no damage to plant)): 0% | pest or weed control at 250 g/ha ([12]; 250 g ai/ha, evaluated after 13 days, read-out: damage to plant, Pigweed, Redroot (100=total damage to plant; 0=no damage to plant)): 30%
